± gives the expanded uncertainty stated by the source.
Conditions: Liquid, Transpiration method

Structure (SMILES): NC=O [formamide]
- vapor or sublimation pressure (303.4 K): 0.0143 ± 0.001 kPa
- vapor or sublimation pressure (308.2 K): 0.0201 ± 0.0014 kPa
- vapor or sublimation pressure (313.2 K): 0.0305 ± 0.0021 kPa
- vapor or sublimation pressure (318.2 K): 0.0455 ± 0.0032 kPa
- vapor or sublimation pressure (323.2 K): 0.0636 ± 0.0044 kPa
- vapor or sublimation pressure (328.2 K): 0.0915 ± 0.0064 kPa
- vapor or sublimation pressure (333.2 K): 0.1243 ± 0.0087 kPa
- vapor or sublimation pressure (338.2 K): 0.1674 ± 0.012 kPa
- vapor or sublimation pressure (343.2 K): 0.2297 ± 0.016 kPa
- vapor or sublimation pressure (348.2 K): 0.3121 ± 0.022 kPa
- vapor or sublimation pressure (353.3 K): 0.4543 ± 0.032 kPa
- vapor or sublimation pressure (358.2 K): 0.5468 ± 0.038 kPa
- vapor or sublimation pressure (363.2 K): 0.7803 ± 0.054 kPa
- vapor or sublimation pressure (368.1 K): 0.9855 ± 0.069 kPa
- vapor or sublimation pressure (373.2 K): 1.271 ± 0.088 kPa
- vapor or sublimation pressure (376 K): 1.476 ± 0.1 kPa

Source: the NIST ThermoML archive (doi:10.1021/je200683f)
